Values after ≈ are worked out from the molar mass of the structure shown.

The conditions of this series: buffer; pH 7.4; 200.0 µM.
A word on the solubility (kinetic): it is solubility judged after dilution from a stock solution rather than from solid. Take `CCOc1ccc(NC(=O)NC2CCCc3ccccc32)cc1` (centres undefined): the solubility (kinetic) was 0.4 µg/mL (≈ 1.29 µM). Under `O=c1[nH]c2c(oc3ccccc32)c(=O)n1Cc1ccccc1` stands 3 µg/mL (≈ 10.3 µM); under `CCc1c(C)nc(N2CCN(c3ccc(F)cc3)CC2)[nH]c1=O`, 2.1 µg/mL (≈ 6.64 µM); under `O=C(/C=C/c1ccccc1)OCCN=C1NS(=O)(=O)c2ccccc21`, 8.6 µg/mL (≈ 24.1 µM).

The compound `CCNC(C(=O)c1c[nH]c2c(CC)cccc12)c1ccccc1` (centres undefined) showed a kinetic solubility of 43.2 µg/mL (≈ 141 µM).

`Cc1ccc(N2C(=O)CC3(CCCC3)CC2=O)cc1` returned a kinetic solubility of 34.3 µg/mL (≈ 133 µM). On to `CC1CCCCN1C(=O)c1ccc(Br)o1` (centres undefined), for which the kinetic solubility amounted to 37.7 µg/mL (≈ 139 µM). In turn, `CN1CCN2c3ncccc3Cc3ccccc3[C@@H]2C1` had a kinetic solubility of 30.2 µg/mL (≈ 114 µM). With `Cc1cccc(NC(=O)c2ccc(COc3ccccc3)o2)n1`, the solubility (kinetic) amounted to 4.8 µg/mL (≈ 15.6 µM). Under `COc1ccccc1N1C(=O)c2cccc3c(Cl)ccc(c23)C1=O` stands under 0.7 µg/mL; under `CCCNC(=O)Nc1cccc(C(=O)OC)c1`, over 35.4 µg/mL; under `C=CCc1ccc(OCCCNC2CCCC2)c(OC)c1`, 35.6 µg/mL (≈ 123 µM).

In the case of `COC(=O)C(C)(N)Cc1ccc(O)cc1.Cl` (centres undefined), the kinetic solubility is over 36.9 µg/mL. With `COC(=O)c1cc(NC(=O)c2cccc(F)c2)cc(C(=O)OC)c1`, the solubility (kinetic) came out at 0.7 µg/mL (≈ 2.11 µM).

In turn, `S=C(NCc1cccc(Cl)c1)NCc1ccco1` had a kinetic solubility of 29.9 µg/mL (≈ 106 µM). Under `O=C(Nc1ccccc1)Nc1cccc2ccccc12` stands 0.3 µg/mL (≈ 1.14 µM); under `Cc1cc(NC(=O)c2ccccc2C)no1`, over 32.4 µg/mL. As for `COc1ccc(NC(=S)NC23CN4CN(CN(C4)C2)C3)c(OC)c1`, the solubility (kinetic) is over 52.4 µg/mL.

For the compound `Cc1c(C=C2C(=O)c3ccccc3C2=O)cc(C#N)n1C`, the solubility (kinetic) amounted to 0.6 µg/mL (≈ 2.17 µM). Consider `Cc1ccccc1C(=O)NC(C(N)=O)P(=O)(OC(C)C)OC(C)C` (centres undefined), for which the solubility (kinetic) was over 53.5 µg/mL.

`COc1cccc(CNC(=O)N[C@@H](C)C(=O)O)c1`: the solubility (kinetic) is over 37.8 µg/mL. `C[C@H](NS(=O)(=O)c1ccc(Cl)cc1)C(=O)OCC(=O)N1CCOCC1` came in with a kinetic solubility of 55.9 µg/mL (≈ 143 µM). Compound `CCc1ccc(NC(=S)N(Cc2ccccc2)Cc2ccccn2)cc1` yielded a solubility (kinetic) of 2.4 µg/mL (≈ 6.64 µM). Under `CNC(=O)Nc1cc(NC(=O)NC)cc(C(F)(F)F)c1` stands over 43.5 µg/mL. Under `CC1CCC(NC(=O)COC(=O)c2cccnc2Cl)CC1` (centres undefined) stands over 46.6 µg/mL; under `C[C@H](NC(N)=O)C(=O)Nc1ccc2c(c1)OCO2`, 32.9 µg/mL (≈ 131 µM); under `COc1ccc(C(=O)NC(C)C2CC3CCC2C3)c(OC)c1` (centres undefined), over 45.5 µg/mL. The compound `Cc1cccc(C(=O)NCCc2ccccc2)c1` came in with a kinetic solubility of over 35.9 µg/mL. Turning to `COc1cc(-c2ccc(NC(C)=O)c(OC)c2)ccc1NC(C)=O`, the kinetic solubility is 10.1 µg/mL (≈ 30.8 µM). Under `O=C(CS(=O)(=O)c1ccccc1)NCc1ccccc1` stands over 43.4 µg/mL; under `CCOC(=O)c1cnc2c(C)cccc2c1Nc1cccc(C(=O)O)c1.Cl`, over 58 µg/mL; under `CCCC(=O)Nc1cc(C)c(NC(=O)c2ccco2)cn1`, 42.8 µg/mL (≈ 149 µM). As for `O=C(/C=C/c1cccnc1)c1cccc(O)c1`, the solubility (kinetic) was 29.9 µg/mL (≈ 133 µM). As for `N#Cc1cccnc1N1CCN(C(=O)c2ccco2)CC1`, the figure is over 42.3 µg/mL; as for `OCc1nc2ccccc2n1CCCCOc1ccccc1`, over 44.5 µg/mL. As for `COc1ccc(NC(=O)CSCC(=O)N=c2sccn2C)cc1`, the figure is 49.9 µg/mL (≈ 142 µM); as for `COc1ccc(NS(=O)(=O)c2ccc3c(c2)OCCO3)cc1OC`, over 52.7 µg/mL; as for `Clc1cc2nc[nH]c2cc1Cl`, over 28.1 µg/mL. Regarding `O=C(CN1CCN(C(=O)c2ccccc2)CC1)Nc1ccccc1`, the solubility (kinetic) is over 48.5 µg/mL. As to `O=C(CCl)c1ccc2[nH]c(=O)oc2c1`, the kinetic solubility is over 31.7 µg/mL. `COCC(=O)N1CCCC(CNS(=O)(=O)c2ccc(OC)cc2)C1` (centres undefined) returned a solubility (kinetic) of over 53.5 µg/mL. Under `COc1ccc(NC(=O)C2=NN(C3CCS(=O)(=O)C3)C(=O)CC2)cc1S(N)(=O)=O` (centres undefined) stands over 66.7 µg/mL; under `Clc1cccc(Cl)c1-c1noc(-c2ccno2)n1`, 28.6 µg/mL (≈ 101 µM). Under `CCC(C)(CCNC(=O)Cc1ccccc1)c1ccccc1OC` (centres undefined) stands 15 µg/mL (≈ 46.1 µM).

The compound `Cn1c(=O)c2c(nc(Oc3ccccc3N)n2C)n(C)c1=O` had a solubility (kinetic) of over 45.2 µg/mL.

The compound `O=C(COC(=O)CCc1nc2ccccc2c(=O)[nH]1)Nc1ccccc1` returned a solubility (kinetic) of over 52.7 µg/mL.

In turn, `C=CCNC(=O)/C(=C/c1cccc([N+](=O)[O-])c1)NC(=O)c1ccco1` displayed a solubility (kinetic) of 43.3 µg/mL (≈ 127 µM). As for `CNC(=S)NC(CC(=O)OC)c1ccc2c(c1)OCO2` (centres undefined), the figure is 41.8 µg/mL (≈ 141 µM). As for `CCOc1ccccc1NC(=O)c1ccc(OCC(=O)N2CCOCC2)c(OC)c1`, the figure is over 62.2 µg/mL; as for `CCCCNC(=O)c1ccccc1SCc1c(C)noc1C`, over 47.8 µg/mL; as for `CC(C)(C)NC(=O)CN(C(=O)C(=O)Nc1ccc2c(c1)OCCO2)C1CC1`, over 56.3 µg/mL. Consider `O=C(Nc1ccc(Br)cn1)c1ccc2ccccc2c1`, for which the solubility (kinetic) was under 0.4 µg/mL.

`O=C(Nc1cccc(C(=O)N2CCCc3ccccc32)c1)c1ccccc1` had a solubility (kinetic) of 17.2 µg/mL (≈ 48.3 µM). Under `Cc1ccc(O)c(CNc2cnc3ccccc3c2)c1` stands 18.1 µg/mL (≈ 68.5 µM). Take `CCOc1ccc(-c2c(=O)n(OCC)c3ccccc3[n+]2[O-])cc1`: the solubility (kinetic) worked out at 21.1 µg/mL (≈ 64.7 µM).

In the case of `COc1ccc(Cl)cc1S(=O)(=O)NC(C)C(=O)NCc1ccccn1` (centres undefined), the kinetic solubility stood at 52.8 µg/mL (≈ 138 µM). `O=[N+]([O-])c1cc(/C=N/N2CCOCC2)cs1` yielded a solubility (kinetic) of over 36.2 µg/mL. Under `COc1cccc(NC(=S)Nc2ccc(Br)cc2Cl)c1` stands 4.6 µg/mL (≈ 12.4 µM). As for `CCSC1=NCCN1C(=O)C(C)(C)Oc1ccc(Cl)cc1`, the figure is 9.8 µg/mL (≈ 30 µM). With `Cl.NCCCCCc1nnc(SCC(N)=O)o1`, the kinetic solubility is over 42.1 µg/mL.

In turn, `COCCNC(=S)N(C)C1(c2ccccc2Cl)CCCCC1=O` (centres undefined) displayed a kinetic solubility of 48.2 µg/mL (≈ 136 µM). Under `CCS(=O)(=O)N1CCC(C(=O)Nc2ccc(C(C)=O)cc2)CC1` stands over 50.8 µg/mL; under `COCc1cc(=O)[nH]c(SCC(=O)c2ccccc2)n1`, over 43.6 µg/mL; under `S=C1NCN(CCc2ccccc2)CN1Cc1ccccc1`, 0.4 µg/mL (≈ 1.28 µM). `CN(C)c1ccc(C=NCCc2ccc(S(N)(=O)=O)cc2)cc1`: the solubility (kinetic) turned out to be 37.1 µg/mL (≈ 112 µM).

`CCOC(=O)NC(=O)CN1C(=O)NC2(CCc3ccccc32)C1=O` (centres undefined) showed a kinetic solubility of over 49.7 µg/mL. Compound `CC1CN(C(=O)c2cc([N+](=O)[O-])cc([N+](=O)[O-])c2)CC(C)O1` (centres undefined) showed a solubility (kinetic) of over 46.4 µg/mL. Under `O=C1CNC(=S)N1C(CO)c1ccccc1` (centres undefined) stands over 35.4 µg/mL. Under `O=C(NCCN1CCCCC1)c1ccc(F)cc1Cl` stands over 42.7 µg/mL; under `CC(=O)Nc1nc(-c2ccc3ccccc3c2)cs1`, under 0.3 µg/mL. The compound `Cc1ccc(S(=O)(=O)N2CCC(N3CCC(C)CC3)CC2)cc1` gave a kinetic solubility of over 50.5 µg/mL. Consider `CCn1c(=O)c2ccccc2n(Cc2cccc([N+](=O)[O-])c2)c1=O`, for which the solubility (kinetic) was 0.9 µg/mL (≈ 2.77 µM). As for `CCOC(=O)c1c(C)oc2cc(Cl)c(O)c(CN(C)C)c12`, the figure is 43.9 µg/mL (≈ 141 µM); as for `Cc1ccc(S(=O)(=O)N2CCOCC2)cc1NC(=O)COC(=O)c1cncc(Br)c1`, over 74.8 µg/mL. `Fc1cc(Br)cc(F)c1NC(=S)N1CCOCC1`: the solubility (kinetic) turned out to be 33.8 µg/mL (≈ 100 µM). Take `O=C(Nc1ccc(C(F)(F)F)cn1)Nc1cccs1`: the kinetic solubility was found to be 0.8 µg/mL (≈ 2.78 µM). Turning to `CC(C)(C)c1ccc(C(=O)NCCCNC(=O)c2cccnc2)cc1`, the kinetic solubility was determined as 49.2 µg/mL (≈ 145 µM).

For `O=[N+]([O-])c1ccc(N2CCN(Cc3ccc4c(c3)OCO4)CC2)nc1`, the kinetic solubility was found to be 7 µg/mL (≈ 20.4 µM). As to `Brc1cccc(CNCC2CCCO2)c1` (centres undefined), the kinetic solubility was over 40.5 µg/mL.

In turn, `CN(C(=O)C(C)(C)C)C1c2c(ccc3ccccc23)OCC1CO` (centres undefined) showed a kinetic solubility of 6.6 µg/mL (≈ 20.2 µM). As for `CCOC(=O)C1CN(S(=O)(=O)c2cc(OC)ccc2OC)C1`, the kinetic solubility was determined as 48.8 µg/mL (≈ 148 µM). As for `Oc1cncc(Cc2ccccc2)c1`, the figure is over 27.8 µg/mL. Under `CNC(=O)C1CC(=O)N(CCc2ccc(C)cc2)C1` (centres undefined) stands over 39.1 µg/mL; under `COc1cc(NC(=O)C2CCN(c3cnccn3)CC2)cc(OC)c1`, 47.1 µg/mL (≈ 138 µM). As for `Cc1ccnc(NC(=O)Cc2ccc(F)cc2)n1`, the figure is over 36.8 µg/mL; as for `CCCCNc1c(N)n(CC(C)C)c(=O)[nH]c1=O`, 35.9 µg/mL (≈ 141 µM); as for `CSc1nc2sc3c(c2c(=S)[nH]1)CC(C)(C)OC3`, 10.6 µg/mL (≈ 35.5 µM). `O=C(O)CSc1nc2ccccc2s1` displayed a solubility (kinetic) of over 33.8 µg/mL. As for `N#Cc1c(N)nc(Sc2ccc(Cl)cc2)c(C#N)c1-c1ccccc1Cl`, the figure is under 0.2 µg/mL; as for `CC(Sc1ccccc1F)C(=O)Nc1ccc2c(c1)OCCO2` (centres undefined), over 50 µg/mL.

With `Cc1cccc(Cn2cc(C=O)c3ccccc32)c1`, the solubility (kinetic) was found to be 14.5 µg/mL (≈ 58.2 µM).

Regarding `CSc1ccc(CNCc2ccco2)cc1.Cl`, the solubility (kinetic) is over 40.5 µg/mL. Under `O=C(O)C1CCCCC1C(=O)Nc1ccc(OCc2ccccc2)cc1` (centres undefined) stands 44.2 µg/mL (≈ 125 µM). Turning to `CC(=O)Nc1ccc(S(=O)(=O)NCC(=O)OCC(=O)NCc2ccc3c(c2)OCO3)cc1`, the solubility (kinetic) was over 69.5 µg/mL. Under `CCCC1=[N+](CC(C)=O)CCn2c(C)ccc21.[Br-]` stands over 47 µg/mL. In the case of `Cc1cccc(NC(=O)c2ccc(Cl)nc2)n1`, the solubility (kinetic) is over 37.2 µg/mL. Under `O=S(=O)(Cc1ccc(Cl)cc1)N1CCCCCC1` stands 4.5 µg/mL (≈ 15.6 µM); under `CN1CCN(c2ccc(F)cc2N)CC1`, over 31.4 µg/mL; under `COC(=O)N1CCN(c2ccc(C)c(C)c2)CC1`, 32.1 µg/mL (≈ 129 µM). `CC1(C)C(=O)N(c2ccccc2Cl)C(=O)c2ccccc21` showed a kinetic solubility of 44.3 µg/mL (≈ 148 µM). Under `COc1cccc(CNCC(=O)NC(=O)NC2CCCC2)c1.O=C(O)C(=O)O` stands over 59.3 µg/mL; under `O=C(CN(Cc1ccco1)C(=O)c1ccc(F)cc1)Nc1ccccc1Br`, over 64.7 µg/mL; under `O=C(/C=C/c1ccccc1)N(Cc1cccc(Cl)c1)C1CCS(=O)(=O)C1` (centres undefined), 14.1 µg/mL (≈ 36.2 µM). As for `Clc1ccc(COC(Cn2ccnc2)c2ccc(Cl)cc2Cl)c(Cl)c1.O=[N+]([O-])O` (centres undefined), the figure is 26.3 µg/mL.

These data come from PubChem BioAssay AID1996.
